Source: patent US10045980B2, “Inhibitor of p38 map kinase” (RESPIVERT LTD, priority 2014, dated 2018)

How the values were obtained:
Syk = molecular target: T1, Syk (Homo sapiens, UniProt P43405); assay: Syk enzyme inhibition (Z-LYTE FRET); format: biochemical
T1 construct: purchased Life Technologies
Procedure: The enzyme inhibitory activities of the compound disclosed herein were determined by FRET using synthetic peptides labelled with both donor and acceptor fluorophores (Z-LYTE, Life Technologies, Paisley, UK).
The relevant enzyme (1000 ng/mL, 1400 ng/mL or 2000 ng/mL respectively, 2.5 μL) was incubated with the test compound (either 40 μg/mL, 12 μg/mL, 4 μg/mL, 1.2 μg/mL, 0.4 μg/mL, 0.12 μg/mL, 0.04 μg/mL, 0.012 μg/mL, 0.004 μg/mL or 0.0012 μg/mL, 2.5 μL each) for 2 h at RT. The FRET peptides (8 μM, 2.5 μL), and appropriate ATP solutions (2.5 μL, 800 μM for c-Src, and 60 μM ATP for HCK and Syk) were then added to the enzyme/compound mixtures and incubated for 1 h at RT. Development reagent (protease, 5 μL) was added for 1 h prior to detection in a fluorescence microplate reader (EnVision, Perkin Elmer).
In all cases, the site-specific protease cleaves non-phosphorylated peptide only and eliminates the FRET signal. Phosphorylation levels of each reaction were calculated using the ratio of coumarin emission (donor) over fluorescein emission (acceptor), for which low ratios indicate high phosphorylation and high ratios indicate low phosphorylation levels.

BEAS2B cells = assay: Poly I:C-induced ICAM-1 expression in BEAS2B cells; format: cell-based; details: Homo sapiens, BEAS-2B, 18 h after poly I:C transfection, read-out: PolyIC/ICAM1 IC50 (BEAS2B)
Procedure: Poly I:C was used in these studies as a simple, RNA virus mimic. Poly I:C-Oligofectamine mixture (2% Oligofectamine±1 μg/mL Poly I:C, 25 μL; Life Technologies and Invivogen Ltd., San Diego, Calif., respectively) was transfected into BEAS2B cells (human bronchial epithelial cells, ATCC). Cells were pre-incubated with final concentrations of test compounds for 2 h and the level of ICAM-1 expression on the cell surface was determined by cell-based ELISA. […]
The cells were washed with PBS-Tween (3×200 μL) and incubated with the secondary antibody (100 μL; HRP-conjugated anti-rabbit IgG, Dako Ltd., Glostrup, Denmark). […] The ICAM-1 signal was detected by reading the absorbance at 450 nm against a reference wavelength of 655 nm using a spectrophotometer. The cells were then washed with PBS-Tween (3×200 μL) and total cell numbers in each well were determined by reading absorbance at 595 nm after Crystal Violet staining (50 μL of a 2% solution in PBS) and elution by 1% SDS solution (100 μL) in PBS. The measured OD 450-655 readings were corrected for cell number by dividing with the OD595 reading in each well. The inhibition of ICAM-1 expression was calculated at each concentration of test compound by comparison with vehicle control.

CCc1cncc(Nc2cc(COc3ccc(NC(=O)Nc4cc(C(C)(C)C)nn4-c4ccc(C)cc4)c4ccccc34)ccn2)n1 [Compound of the invention, 1-(3-(tert-butyl)-1-(p-tolyl)-1H-pyrazol-5-yl)-3-(4-((2-((6-ethylpyrazin-2-yl)amino)pyridin-4-yl)methoxy)naphthalen-1-yl)urea]
IC50 (Syk): > 16000 nM
IC50 (BEAS2B cells): 61.1 nM
